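A five-concentration, 48-hour dose response in 96-well plates underlies each endpoint, interpolated linearly between surrounding concentrations. At the GI50, growth is halved.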 The source made the active and inactive calls. Rule as the data show it: active = GI50 up to about 1.1 µM and inactive = higher.
Legend:
Assay in all cases: growth of human tumour cells (NCI), 48 h
[1] = system: HOP-92
[2] = system: SK-MEL-28
[3] = system: TK-10
[4] = system: HCC 2998
[5] = system: UACC-257
[6] = system: SF-539
[7] = system: HL-60
[8] = system: SF-295
[9] = system: RPMI-8226
[10] = system: KM12
[11] = system: U-251
[12] = system: SW-620
[13] = system: OVCAR-8
[14] = system: SNB-19
[15] = system: NCI-H522
[16] = system: PC-3
[17] = system: DU-145
[18] = system: UO-31
[19] = system: K562
[20] = system: COLO 205
[21] = system: Hs-578T
[22] = system: A549
[23] = system: MDA-N
[24] = system: UACC-62
[25] = system: CAKI-1
[26] = system: ACHN
[27] = system: OVCAR-3
[28] = system: LOX IMVI
[29] = system: SK-MEL-2
[30] = system: SR
[31] = system: IGROV-1
[32] = system: NCI-H226
[33] = system: T47D
[34] = system: SK-MEL-5
[35] = system: 786-0
[36] = system: NCI-H23
[37] = system: HOP-62
[38] = system: MDA-MB-435
[39] = system: M14
[40] = system: MDA-MB-231
[41] = system: EKVX
[42] = system: OVCAR-4
[43] = system: RXF 393
[44] = system: CCRF-CEM
[45] = system: SK-OV-3
[46] = system: SNB-75
[47] = system: MCF7
[48] = system: A498
[49] = system: NCI-H460
[50] = system: NCI/ADR-RES
[51] = system: SN12C
[52] = system: SF-268
[53] = system: Malme-3M
[54] = system: HT-29
[55] = system: OVCAR-5
[56] = system: HCT-116
[57] = system: MOLT-4
[58] = system: BT-549
[59] = system: HCT-15

O=C1Oc2ccccc2C(=O)/C1=C\Nc1nc(-c2ccccc2)cs1
GI50 [1]: 11.1 µM (inactive)
GI50 [2]: 16.1 µM (inactive)
GI50 [3]: 2.21 µM (inactive)
GI50 [4]: 51.4 µM (inactive)
GI50 [5]: 10.5 µM (inactive)
GI50 [6]: 2.94 µM (inactive)
GI50 [7]: 1.45 µM (inactive)
GI50 [8]: 25.9 µM (inactive)
GI50 [9]: 4.47 µM (inactive)
GI50 [10]: 16.7 µM (inactive)
GI50 [11]: 11.8 µM (inactive)
GI50 [12]: 3.31 µM (inactive)
GI50 [13]: 8 µM (inactive)
GI50 [14]: 19.9 µM (inactive)
GI50 [15]: 2.31 µM (inactive)
GI50 [16]: 16.9 µM (inactive)
GI50 [17]: 15.3 µM (inactive)
GI50 [18]: 7.8 µM (inactive)
GI50 [19]: 7.66 µM (inactive)
GI50 [20]: 2.6 µM (inactive)
GI50 [21]: 15.7 µM (inactive)
GI50 [22]: 31 µM (inactive)
GI50 [23]: 4.85 µM (inactive)
GI50 [24]: 5.36 µM (inactive)
GI50 [25]: 3.76 µM (inactive)
GI50 [26]: 11.2 µM (inactive)
GI50 [27]: 14.3 µM (inactive)
GI50 [28]: 5.2 µM (inactive)
GI50 [29]: 14.3 µM (inactive)
GI50 [30]: 2.01 µM (inactive)
GI50 [31]: 12.3 µM (inactive)
GI50 [32]: 3.24 µM (inactive)
GI50 [33]: 15.9 µM (inactive)
GI50 [34]: 2.75 µM (inactive)
GI50 [35]: 5.83 µM (inactive)
GI50 [36]: 16.7 µM (inactive)
GI50 [37]: 23.4 µM (inactive)
GI50 [38]: 7.38 µM (inactive)
GI50 [39]: 4.53 µM (inactive)
GI50 [40]: 18.9 µM (inactive)
GI50 [41]: 19.5 µM (inactive)
GI50 [42]: 58.7 µM (inactive)
GI50 [43]: 12.4 µM (inactive)
GI50 [44]: 1.35 µM (inactive)
GI50 [45]: 33.4 µM (inactive)
GI50 [46]: 5.86 µM (inactive)
GI50 [47]: 4.07 µM (inactive)
GI50 [48]: 27.7 µM (inactive)
GI50 [49]: > 100 µM (inactive)
GI50 [50]: 10.6 µM (inactive)
GI50 [51]: 7.08 µM (inactive)
GI50 [52]: 8.75 µM (inactive)
GI50 [53]: 11.6 µM (inactive)
GI50 [54]: 5.21 µM (inactive)
GI50 [55]: 19 µM (inactive)
GI50 [56]: 4.95 µM (inactive)
GI50 [57]: 2.28 µM (inactive)

O=S(=O)(O)c1ccc2c(/N=N/c3ccccc3)c(O)ccc2c1
GI50 [1]: > 100 µM (inactive)
GI50 [2]: > 100 µM (inactive)
GI50 [4]: > 100 µM (inactive)
GI50 [58]: > 100 µM (inactive)
GI50 [5]: > 100 µM (inactive)
GI50 [6]: > 100 µM (inactive)
GI50 [7]: > 100 µM (inactive)
GI50 [10]: > 100 µM (inactive)
GI50 [11]: > 100 µM (inactive)
GI50 [12]: > 100 µM (inactive)
GI50 [13]: > 100 µM (inactive)
GI50 [14]: > 100 µM (inactive)
GI50 [17]: > 100 µM (inactive)
GI50 [18]: > 100 µM (inactive)
GI50 [20]: > 100 µM (inactive)
GI50 [25]: > 100 µM (inactive)
GI50 [27]: > 100 µM (inactive)
GI50 [29]: > 100 µM (inactive)
GI50 [30]: > 100 µM (inactive)
GI50 [31]: > 100 µM (inactive)
GI50 [33]: > 100 µM (inactive)
GI50 [34]: > 100 µM (inactive)
GI50 [35]: > 100 µM (inactive)
GI50 [38]: > 100 µM (inactive)
GI50 [39]: > 100 µM (inactive)
GI50 [41]: > 100 µM (inactive)
GI50 [43]: > 100 µM (inactive)
GI50 [44]: > 100 µM (inactive)
GI50 [45]: > 100 µM (inactive)
GI50 [46]: > 100 µM (inactive)
GI50 [47]: > 100 µM (inactive)
GI50 [48]: > 100 µM (inactive)
GI50 [49]: > 100 µM (inactive)
GI50 [51]: > 100 µM (inactive)
GI50 [59]: > 100 µM
GI50 [55]: > 100 µM (inactive)
GI50 [56]: > 100 µM (inactive)
GI50 [57]: > 100 µM (inactive)

From ChEMBL document CHEMBL1201862, “PubChem BioAssay data set” (2004)
